Legend:
levator ani [1] = assay: Levator Ani Weight in vivo Assay (stimulation of levator ani weight); design: key: “active” in the Table below if the non weight adjusted levator ani weight was ≧40 mg or the % Stimulation levator ani weight, body weight adjusted was ≧40% at 2 mg/day dosage; listed herein as “inactive” as they did not meet the specified criteria defined above; settings: castrated male Sprague Dawley rats, test compound usually orally once daily with testosterone propionate s.c.; levator ani wet weight; criteria at 2 mg/day dosage
Protocol: (§1) Ventral Prostate and Levator Ani Weight in vivo Assay
(§2) Immature (approximately 50 g) castrated male Sprague Dawley rats (Charles River) were treated once daily for five days with test compound (usually given orally at 40 mg/kg in a volume of 0.3 mL, in 30% cyclodextrin or 0.5% methylcellulose vehicle) and with testosterone propionate (given subcutaneously by injection at the nape of the neck at 2 mg/kg, in a volume of 0.1 mL in sesame oil). On the sixth day, the rats were euthanized by asphyxiation in carbon dioxide. Ventral prostates and levator ani were removed and their wet weights determined. Test compound activity was determined as the percent inhibition of testosterone-enhanced tissue weights, with a vehicle-treated control group set to zero percent and a testosterone alone-treated control group set to 100%.
(§3) Mature (150- to 200-g) castrated male Sprague Dawley rats (Charles River) are similarly tested according to the procedure described above. The rats were dosed for two weeks, with 0.4 mg/kg testosterone propionate used as the positive control.
(§4) Representative compounds of the present invention were tested according to the procedure described above, with results as listed in Table 3 below. For effect on prostate—i.e. an antagonist—a test compound is listed as “active” in the Table below if the non weight adjusted prostate weight was ≦40 mg or the % Inhibition prostate weight, body weight adjusted was ≧40% @ 2 mg/day dosage. For effect on levator ani—i.e. an agonist—a test compound is listed as “active” in the Table below if the non weight adjusted levator ani weight was ≧40 mg or the % Stimulation levator ani weight, body weight adjusted was ≧40% at 2 mg/day dosage.

ventral prostate = assay: Ventral Prostate Weight in vivo Assay (inhibition of testosterone-enhanced tissue weight); design: key: “active” in the Table below if the non weight adjusted prostate weight was ≦40 mg or the % Inhibition prostate weight, body weight adjusted was ≧40% @ 2 mg/day dosage; listed herein as “inactive” as they did not meet the specified criteria defined above; settings: castrated male Sprague Dawley rats, test compound usually orally once daily with testosterone propionate s.c.; ventral prostate wet weight; criteria at 2 mg/day dosage
Protocol: as §1, §2, §3, §4

levator ani [2] = assay: Levator Ani Weight in vivo Assay (stimulation of levator ani weight); design: key: “active” in the Table below if the non weight adjusted prostate weight was ≦40 mg or the % Inhibition prostate weight, body weight adjusted was ≧40% @ 2 mg/day dosage; listed herein as “inactive” as they did not meet the specified criteria defined above; settings: castrated male Sprague Dawley rats, test compound usually orally once daily with testosterone propionate s.c.; levator ani wet weight; criteria at 2 mg/day dosage
Protocol: as §1, §2, §3, §4

SMILES	L.A. agonist (levator ani [1])	Prostate antagonist (ventral prostate)	L.A. agonist (levator ani [2])
C=C=CC(O)(c1nc2cc(Cl)c(Cl)cc2[nH]1)C(F)(F)F (single isomer, unassigned; (+)) [Compound 31, (+)-Enantiomer of 2-(5,6-Dichloro-1H-benzoimidazol-2-yl)-1,1,1-trifluoro-penta-3,4-dien-2-ol]	active	active	–
C=CC(O)(c1nc2cc(Cl)c(Cl)cc2[nH]1)C(F)(F)F (single isomer, unassigned; (+)) [Compound 43, (+)-2-(5,6-dichloro-1H-benzoimidazol-2-yl)-1,1,1-trifluoro-but-3-en-2-ol]	active	inactive	–
C#CCC(O)(c1nc2cc(Cl)c(Cl)cc2n1C)C(F)(F)F (single isomer, unassigned; (-)) [Compound 37, (−)-Enantiomer of 2-(5,6-Dichloro-1-methyl-1H-benzoimidazol-2-yl)-1,1,1-trifluoro-pent-4-yn-2-ol]	active	inactive	–
C#CCC(O)(c1nc2cc(Cl)c(Cl)cc2[nH]1)C(F)(F)F (centres unmarked) [Compound 2, 2-(5,6-Dichloro-1H-benzoimidazol-2-yl)-1,1,1-trifluoro-pent-4-yn-2-ol]	active	active	–
C=C=CC(O)(c1nc2cc(Cl)c(Cl)cc2[nH]1)C(F)(F)F (centres unmarked) [Compound 3, 2-(5,6-Dichloro-1H-benzoimidazol-2-yl)-1,1,1-trifluoro-penta-3,4-dien-2-ol]	active	active	–
C=CC(O)(c1nc2cc(Cl)c(Cl)cc2[nH]1)C(F)(F)F (centres unmarked) [Compound 4, 2-(5,6-Dichloro-1H-benzoimidazol-2-yl)-1,1,1-trifluoro-but-3-en-2-ol]	active	active	–
N#CCC(O)(c1nc2cc(Cl)c(Cl)cc2[nH]1)C(F)(F)F (centres unmarked) [Compound 7, 3-(5,6-Dichloro-1H-benzoimidazol-2-yl)-4,4,4-trifluoro-3-hydroxy-butyronitrile]	active	inactive	–
C/C=C\C(O)(c1nc2cc(Cl)c(Cl)cc2[nH]1)C(F)(F)F (stereo not drawn) [Compound 15, 2-(5,6-Dichloro-1H-benzoimidazol-2-yl)-1,1,1-trifluoro-cis-pent-3-en-2-ol]	active	active	–
C=C(CC(O)(c1nc2cc(Cl)c(Cl)cc2[nH]1)C(F)(F)F)C(=O)O (centres unmarked) [Compound 27, 2-[2-(5,6-Dichloro-1H-benzoimidazol-2-yl)-3,3,3-trifluoro-2-hydroxy-propyl]-acrylic acid]	–	inactive	inactive
C=CC(c1ccccc1)C(O)(c1nc2cc(Cl)c(Cl)cc2[nH]1)C(F)(F)F (centres unmarked) [Compound 28, 2-(5,6-Dichloro-1H-benzoimidazol-2-yl)-1,1,1-trifluoro-3-phenyl-pent-4-en-2-ol]	–	active	inactive
OC(CC#Cc1ccccc1)(c1nc2cc(Cl)c(Cl)cc2[nH]1)C(F)(F)F (centres unmarked) [Compound 34, 2-(5,6-Dichloro-1H-benzoimidazol-2-yl)-1,1,1-trifluoro-5-phenyl-pent-4-yn-2-ol]	–	inactive	inactive
C=CCC(O)(c1nc2cc(C#N)c(C(F)(F)F)cc2[nH]1)C(F)(F)F (centres unmarked) [Compound 38, 2-(1-Hydroxy-1-trifluoromethyl-but-3-enyl)-6-trifluoromethyl-1H-benzoimidazole-5-carbonitrile]	active	active	–
C#CCC(O)(c1nc2cc(C#N)c(C(F)(F)F)cc2[nH]1)C(F)(F)F (centres unmarked) [Compound 39, 2-(1-Hydroxy-1-trifluoromethyl-but-3-ynyl)-6-trifluoromethyl-1H-benzoimidazole-5-carbonitrile]	–	active	inactive
C=C=C(C)C(O)(c1nc2cc(C#N)c(C(F)(F)F)cc2[nH]1)C(F)(F)F (centres unmarked) [Compound 41, 2-(1-Hydroxy-2-methyl-1-trifluoromethyl-buta-2,3-dienyl)-6-trifluoromethyl-1H-benzoimidazole-5-carbonitrile]	–	active	inactive
CC(C)=C(C)C(O)(c1nc2cc(Cl)c(Cl)cc2[nH]1)C(F)(F)F (centres unmarked) [Compound 42, 2-(5,6-Dichloro-1H-benzoimidazol-2-yl)-1,1,1-trifluoro-3,4-dimethyl-pent-3-en-2-ol]	–	active	inactive
FC(F)(F)C1(c2nc3cc(Cl)c(Cl)cc3[nH]2)C=CCO1 (centres unmarked) [Compound 45, 5,6-Dichloro-2-(2-trifluoromethyl-2,5-dihydro-furan-2-yl)-1H-benzoimidazole]	active	inactive	–
FC(F)(F)C1(c2nc3cc(Cl)c(Cl)cc3[nH]2)CCCO1 (centres unmarked) [Compound 46, 5,6-Dichloro-2-(2-trifluoromethyl-tetrahydro-furan-2-yl)-1H-benzoimidazole]	active	active	–
FC(F)(F)C1(c2nc3cc(Cl)c(Cl)cc3n2Cc2ccccn2)OCCO1 [Compound 48]	–	inactive	inactive
OCC1COC(c2nc3cc(Cl)c(Cl)cc3[nH]2)(C(F)(F)F)O1 (centres unmarked) [Compound 49, [2-(5,6-Dichloro-1H-benzoimidazol-2-yl)-2-trifluoromethyl-[1,3]dioxolan-4-yl]-methanol]	–	active	inactive
FC(F)(F)C1(c2nc3cc(Cl)c(Cl)cc3[nH]2)OCCCO1 [Compound 51, 5,6-Dichloro-2-(2-trifluoromethyl-[1,3]dioxan-2-yl)-1H-benzimidazole]	–	active	inactive
N#Cc1cc2nc(C3(C(F)(F)F)OCCO3)[nH]c2cc1C(F)(F)F [Compound 59, 6-Trifluoromethyl-2-(2-trifluoromethyl-[1,3]dioxolan-2-yl)-1H-benzimidazole-5-carbonitrile]	–	active	inactive
FC(F)(F)C1(c2nc3cc(Cl)c(Cl)cc3[nH]2)NCCO1 (centres unmarked) [Compound 61, 5,6-Dichloro-2-(2-trifluoromethyl-oxazolidin-2-yl)-1H-benzimidazole]	–	active	inactive

Reference: patent publication US8802865B2 (Janssen Pharmaceutica, NV, priority 2006, dated 2014)
